In patent EP0241232A1, “Isoxazolylethanol derivatives” (SHIONOGI SEIYAKU KABUSHIKI KAISHA, priority 1986, dated 1987):

These molecules were tested on Sphaerotheca fuliginea (assay: Control of cucumber powdery mildew by foliar spray). Details: foliar spray 2.0 ppm; inoculation 24 hr. after application; observed 10 days after inoculation.
Format: in vivo
Protocol: The test compound was dissolved in a small amount of acetone and suspended in demineralized distilled water containing a spreader, to a concentration of 7.8 ppm and 2.0 ppm. Young cucumber plants (c.v. Tsukuba-Shiroibo) of 2-leaf stage grown in pots were sprayed sufficiently with the suspension.
Spores of Sphaerotheca fuliginea cultured in cucumber plants were collected and suspended in distilled water. Inoculation was made by spraying with the spore suspension to the test plant of 24 hr. after application of the test compound (preventive control) or 24 hr. before application (curative control).
Development of the disease was observed 10 days after inoculation and control index was obtained as described in Experiment 3.

Row | Compound | Control Index Preventive Effect
1 | Cc1onc(C(O)(Cn2cncn2)c2ccc(Cl)cc2)c1Cl (centres unmarked) [Ib - 1, 1-(4-Chlorophenyl)-1-(5-methyl-4-chloroisoxazol-3-yl)-2-(1H-1,2,4-triazol-1-yl)ethanol] | 70 (Leaves covered with symptom between 16 % and 45 % area)
2 | CC(C)(C)C(=O)C(Oc1ccc(Cl)cc1)n1cncn1 (centres unmarked) [Triadi-mefon, reference compound] | 90 (Leaves covered with symptom between 4 % and 15 % area)

Same assay, conditions: foliar spray 2.0 ppm; inoculation 24 hr. before application; observed 10 days after inoculation

Row | Compound | Control Index Curative Effect
3 | Cc1onc(C(O)(Cn2cncn2)c2ccc(Cl)cc2)c1Cl (centres unmarked) [Ib - 1, 1-(4-Chlorophenyl)-1-(5-methyl-4-chloroisoxazol-3-yl)-2-(1H-1,2,4-triazol-1-yl)ethanol] | 97 (Leaves covered with symptom less than 3 % area)
4 | CC(C)(C)C(=O)C(Oc1ccc(Cl)cc1)n1cncn1 (centres unmarked) [Triadi-mefon, reference compound] | 90 (Leaves covered with symptom between 4 % and 15 % area)

Same assay, conditions: foliar spray 7.8 ppm; inoculation 24 hr. after application; observed 10 days after inoculation

Row | Compound | Control Index Preventive Effect
5 | Cc1onc(C(O)(Cn2cncn2)c2ccc(Cl)cc2)c1Cl (centres unmarked) [Ib - 1, 1-(4-Chlorophenyl)-1-(5-methyl-4-chloroisoxazol-3-yl)-2-(1H-1,2,4-triazol-1-yl)ethanol] | 97 (Leaves covered with symptom less than 3 % area)
6 | CC(C)(C)C(=O)C(Oc1ccc(Cl)cc1)n1cncn1 (centres unmarked) [Triadi-mefon, reference compound] | 90 (Leaves covered with symptom between 4 % and 15 % area)

Same assay, conditions: foliar spray 7.8 ppm; inoculation 24 hr. before application; observed 10 days after inoculation

Row | Compound | Control Index Curative Effect
7 | Cc1onc(C(O)(Cn2cncn2)c2ccc(Cl)cc2)c1Cl (centres unmarked) [Ib - 1, 1-(4-Chlorophenyl)-1-(5-methyl-4-chloroisoxazol-3-yl)-2-(1H-1,2,4-triazol-1-yl)ethanol] | 100
8 | CC(C)(C)C(=O)C(Oc1ccc(Cl)cc1)n1cncn1 (centres unmarked) [Triadi-mefon, reference compound] | 90 (Leaves covered with symptom between 4 % and 15 % area)

The molecules below were run on Rhizoctonia solani (assay: Control by seed-soaking: Rhizoctonia damping-off in cucumber). Details: 360 h, read-out: Control Index Rhizoctonia Damping-Off in Cucumber.
Format: in vivo
Protocol: (§1) The test compound was dissolved in 0.2 ml of acetone and suspended in demineralized distilled water containing a small amount of spreader, to a concentration of 500 ppm. The suspension was further diluted to one quarter dilution with demineralized distilled water (containing a small amount of spreader) to give a suspension in 125 ppm. All seeds of oats, wheat and cucumber were soaked in these suspensions at room temperature for an hour and then the seeds were air-dried.
(§2) The seeds as described above were sown in plastic pots (diameter : 9 cm). For rust and powdery mildews, the pots were kept in a glasshouse for 1 - 3 weeks until the seeds grew to young plants. The young oats (10 - 20 plants per pot) were inoculated by dusting with spores of Puccinia coronata, and the wheat (10 - 20 plants per pot) was also inoculated by spraying with spores of Erysiphe graminis f. sp. tritici, and the cucumber (1 plant per pot) was also inoculated by spraying with spore suspension of Sphaerotheca fuliginea. These inoculated plants were further kept in a glasshouse for 10 - 14 days until assessment. For damping-off, the treated seeds were sown in paper pots (diameter : 7.5 cm; depth : 6 cm) which contained soil infested with Rhizoctonia solani by mixing sterilized soil and pre-cultured fungus. Then the pots were kept in a humid glasshouse at 25 - 32 ^*C.
(§3) Damping-off was observed 15 days after sowing, and disease degree and control effect were obtained from the following equations. [formula] [formula] where diseased seedlings included damping-off and unemerged'seeds due to infection. For the foliar diseases, disease development was observed 10 - 14 days after inoculation of spores, and control effect was obtained by the following index.

Row | Compound | pest or weed control at 125 ppm [%] | pest or weed control at 500 ppm [%]
9 | CC(C)(C)C(=O)C(Oc1ccc(Cl)cc1)n1cncn1 (centres unmarked) [Triadi-mefon, reference compound] | 34 | 49

Same assay, conditions: 360 h, seed-soaking, 125 ppm, observed 15 days after sowing, control effect by equation, read-out: Control Index Rhizoctonia Damping-Off in Cucumber

Row | Compound | pest or weed control at 125 ppm [%]
10 | OC(Cn1cncn1)(c1ccc(F)cc1)c1ccon1 (stereo not drawn) [Ia - 1, 1-(4-Fluorophenyl)-1-(isoxazol-3-yl)-2-(1H-1,2,4-triazol-l-yl)ethanol] | 71
11 | Cc1cc(C(O)(Cn2cncn2)c2ccc(F)cc2)no1 (centres unmarked) [Ia - 6] | 54
12 | Cc1onc(C(O)(Cn2cncn2)c2ccc(Cl)cc2)c1Cl (centres unmarked) [Ib - 1, 1-(4-Chlorophenyl)-1-(5-methyl-4-chloroisoxazol-3-yl)-2-(1H-1,2,4-triazol-1-yl)ethanol] | 35

Same assay, conditions: 360 h, seed-soaking, 500 ppm, observed 15 days after sowing, control effect by equation, read-out: Control Index Rhizoctonia Damping-Off in Cucumber

Row | Compound | pest or weed control at 500 ppm [%]
13 | OC(Cn1cncn1)(c1ccc(F)cc1)c1ccon1 (stereo not drawn) [Ia - 1, 1-(4-Fluorophenyl)-1-(isoxazol-3-yl)-2-(1H-1,2,4-triazol-l-yl)ethanol] | 90
14 | Cc1cc(C(O)(Cn2cncn2)c2ccc(F)cc2)no1 (centres unmarked) [Ia - 6] | 85
15 | Cc1onc(C(O)(Cn2cncn2)c2ccc(Cl)cc2)c1Cl (centres unmarked) [Ib - 1, 1-(4-Chlorophenyl)-1-(5-methyl-4-chloroisoxazol-3-yl)-2-(1H-1,2,4-triazol-1-yl)ethanol] | 88

The molecules below were run on Erysiphe graminis f. sp. tritici (assay: Control by seed-soaking: powdery mildew in wheat). Details: 125 ppm.
Format: in vivo
Protocol: as §1, §2, §3

Row | Compound | Control Index Powdery Mildew in Wheat
16 | OC(Cn1cncn1)(c1ccc(F)cc1)c1ccon1 (stereo not drawn) [Ia - 1, 1-(4-Fluorophenyl)-1-(isoxazol-3-yl)-2-(1H-1,2,4-triazol-l-yl)ethanol] | 70 (Leaves covered with symptom between 16 % and 45 % area)
17 | CC(C)(C)C(=O)C(Oc1ccc(Cl)cc1)n1cncn1 (centres unmarked) [Triadi-mefon, reference compound] | 90 (Leaves covered with symptom between 4 % and 15 % area)

Same assay, conditions: 500 ppm

Row | Compound | Control Index Powdery Mildew in Wheat
18 | OC(Cn1cncn1)(c1ccc(F)cc1)c1ccon1 (stereo not drawn) [Ia - 1, 1-(4-Fluorophenyl)-1-(isoxazol-3-yl)-2-(1H-1,2,4-triazol-l-yl)ethanol] | 100
19 | CC(C)(C)C(=O)C(Oc1ccc(Cl)cc1)n1cncn1 (centres unmarked) [Triadi-mefon, reference compound] | 100

What follows are molecules tested on Sphaerotheca fuliginea (assay: Control by seed-soaking: powdery mildew in cucumber). Details: 125 ppm.
Format: in vivo
Protocol: as §1, §2, §3

Row | Compound | Control Index Powdery Mildew in Cucumber
20 | OC(Cn1cncn1)(c1ccc(F)cc1)c1ccon1 (stereo not drawn) [Ia - 1, 1-(4-Fluorophenyl)-1-(isoxazol-3-yl)-2-(1H-1,2,4-triazol-l-yl)ethanol] | 0 (Leaves covered with symptom more than 66 %)
21 | CC(C)(C)C(=O)C(Oc1ccc(Cl)cc1)n1cncn1 (centres unmarked) [Triadi-mefon, reference compound] | 0 (Leaves covered with symptom more than 66 %)

Same assay, conditions: 500 ppm

Row | Compound | Control Index Powdery Mildew in Cucumber
22 | OC(Cn1cncn1)(c1ccc(F)cc1)c1ccon1 (stereo not drawn) [Ia - 1, 1-(4-Fluorophenyl)-1-(isoxazol-3-yl)-2-(1H-1,2,4-triazol-l-yl)ethanol] | 70 (Leaves covered with symptom between 16 % and 45 % area)
23 | CC(C)(C)C(=O)C(Oc1ccc(Cl)cc1)n1cncn1 (centres unmarked) [Triadi-mefon, reference compound] | 70 (Leaves covered with symptom between 16 % and 45 % area)

These molecules were tested on Candida albicans KE-2 (assay: Inhibition test against pseudomycelium formation of Candida albicans). Details: KE2, minimum effective concentration preventing typical pseudomycelium formation, Eagle-MEM + 20 % calf serum, 18 hours at 37 °C, read-out: Inhibitory Concentration of Pseudo-myselium Formation.
Format: cell-based
Protocol: Candida albicans KE-2 was inoculated to Eagle-MEM medium (Nissan 2 made by Nissui Seiyaku, Ltd.) supplemented with 20 % calf serum so that its final inoculum of yeast cell might be 1 x 10^6 yeast cells per milliliter. The test compounds were added thereon in two fold dilution series. After incubation for 18 hours at 37 °C, the fungal growth in each drug concentration was smeared and fixed on a slide glass, and the presence or absence of the pseudomycelium formation was examined by a microscope following Giemsa staining. Minimum effective concentration was defined as the lowest concentration of the compound which prevented typical pseudomycelium formation.

Row | Compound | minimal effective concentration [µg/mL]
24 | OC(Cn1cncn1)(c1ccc(F)cc1)c1ccon1 (stereo not drawn) [Ia - 1, 1-(4-Fluorophenyl)-1-(isoxazol-3-yl)-2-(1H-1,2,4-triazol-l-yl)ethanol] | 0.31
25 | Cc1cc(C(O)(Cn2cncn2)c2ccc(F)cc2)no1 (centres unmarked) [Ia - 6] | 0.16
26 | Cc1onc(C(O)(Cn2cncn2)c2ccc(Cl)cc2)c1Cl (centres unmarked) [Ib - 1, 1-(4-Chlorophenyl)-1-(5-methyl-4-chloroisoxazol-3-yl)-2-(1H-1,2,4-triazol-1-yl)ethanol] | 0.31

The molecules below were run on Candida albicans KE-2 (assay: Therapeutic effect against experimental candidiasis in mice). Details: KE2, po, 120 h, mouse survival ratio on the 5th day after infection, Jcl-ICR female mouse, 50 mg/kg orally three times (0, 4, 24 hours).
Format: in vivo
Protocol: After Candida albicans KE-2 was incubated on Sabouraud's glucose agar at 28 °C for 48 hr., it was suspended in Sabouraud's glucose broth and the cells ([…]) were injected to a tail vein of Jcl-ICR female mouse (4 weeks age; weight : 18 - 20 g). A suspension of the test compound in 2 % gum arabic was orally administered three times, immediately after infection of the yeast ( 0 hour), after 4 hours and after 24 hours, as a dosage of 50 mg/kg. Non-treated group was used as control. Each eight mice per group was used in control group and treated group. All the mice in control group died within 48 hr. after infection. Therapeutic effect of the test compound was judged by mouse survival ratio on the 5th day after infection.

Row | Compound | responders at 50 mg/kg [%]
27 | OC(Cn1cncn1)(c1ccc(F)cc1)c1ccon1 (stereo not drawn) [Ia - 1, 1-(4-Fluorophenyl)-1-(isoxazol-3-yl)-2-(1H-1,2,4-triazol-l-yl)ethanol] | 87.5

What follows are molecules tested on Puccinia coronata (assay: Control by seed-soaking: crown rust in oats). Details: 125 ppm.
Format: in vivo
Protocol: as §1, §2, §3

Row | Compound | Control Index Crown Rust in Oats
28 | OC(Cn1cncn1)(c1ccc(F)cc1)c1ccon1 (stereo not drawn) [Ia - 1, 1-(4-Fluorophenyl)-1-(isoxazol-3-yl)-2-(1H-1,2,4-triazol-l-yl)ethanol] | 50 (Leaves covered with symptom between 46 % and 65 % area)
29 | CC(C)(C)C(=O)C(Oc1ccc(Cl)cc1)n1cncn1 (centres unmarked) [Triadi-mefon, reference compound] | 50 (Leaves covered with symptom between 46 % and 65 % area)

Same assay, conditions: 500 ppm

Row | Compound | Control Index Crown Rust in Oats
30 | OC(Cn1cncn1)(c1ccc(F)cc1)c1ccon1 (stereo not drawn) [Ia - 1, 1-(4-Fluorophenyl)-1-(isoxazol-3-yl)-2-(1H-1,2,4-triazol-l-yl)ethanol] | 90 (Leaves covered with symptom between 4 % and 15 % area)
31 | CC(C)(C)C(=O)C(Oc1ccc(Cl)cc1)n1cncn1 (centres unmarked) [Triadi-mefon, reference compound] | 97 (Leaves covered with symptom less than 3 % area)
